These results are taken from patent US20140288044A1, “COMPOSITIONS AND THERAPEUTIC USES OF IKK-RELATED KINASE EPSILON AND TANKBINDING KINASE 1 INHIBITORS” (Alzheimer's Institute of America, Inc., priority 2011, published 2014).

One experiment deals with T1, IKKε (Homo sapiens, UniProt Q14164).
T1 construct: His-tag (in-house Sf9 preparation) or GST-tag (purchased Invitrogen preparation); these are alternatives, not both on one protein; host or cells: Sf9 cells
T1 sequence (Q14164 1-716): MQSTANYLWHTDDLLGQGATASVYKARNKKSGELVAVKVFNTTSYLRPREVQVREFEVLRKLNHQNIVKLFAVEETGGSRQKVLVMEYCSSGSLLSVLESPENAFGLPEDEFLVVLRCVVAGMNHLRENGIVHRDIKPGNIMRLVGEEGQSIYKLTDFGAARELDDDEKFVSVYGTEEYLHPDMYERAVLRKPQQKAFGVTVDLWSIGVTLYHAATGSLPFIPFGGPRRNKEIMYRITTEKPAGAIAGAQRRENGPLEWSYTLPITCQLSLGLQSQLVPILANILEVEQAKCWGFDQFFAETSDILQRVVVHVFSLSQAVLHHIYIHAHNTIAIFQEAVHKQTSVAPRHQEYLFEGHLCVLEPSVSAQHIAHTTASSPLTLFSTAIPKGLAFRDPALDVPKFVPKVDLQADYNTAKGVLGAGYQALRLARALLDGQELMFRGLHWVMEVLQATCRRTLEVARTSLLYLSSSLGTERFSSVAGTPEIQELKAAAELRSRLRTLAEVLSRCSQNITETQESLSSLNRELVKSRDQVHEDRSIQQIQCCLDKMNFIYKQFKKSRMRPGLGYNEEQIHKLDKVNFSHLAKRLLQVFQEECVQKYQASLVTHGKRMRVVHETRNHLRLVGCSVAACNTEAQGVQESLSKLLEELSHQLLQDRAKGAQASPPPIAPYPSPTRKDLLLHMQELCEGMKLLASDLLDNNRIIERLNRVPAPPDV
Kind of experiment: In-vitro IKKε kinase assay (radiolabelled ATP, filterplate). The experiment is classed as biochemical. The method, boiled down: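 His-tagged IKKε from Sf9 cells or GST-tagged IKKε, with myelin basic protein, casein or dephosphorylated casein as substrate and 32 μM ATP (2× Km) plus [γ^33]ATP. "Normal" assay used 0.1 μg/ml enzyme; "sensitized" used 0.015 μg/ml with dephosphorylated casein only. Stopped after 30–45 min with phosphoric acid; P-81 filter counts normalized to DMSO after background subtraction.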

For experiment [1], the system named is RANTES secretion by prostate cancer DU145 cells. Kind of experiment: ELISA to detect secreted RANTES, prostate cancer DU145 cells. The experiment is classed as cell-based. The note with it: Homo sapiens, DU-145. As to the method:
Prostate cancer DU145 cells were seeded at 20,000 cells/well in a 96-well tissue culture plate. The following day media was removed and replaced with complete media containing IKKε/TBK1 inhibitor (starting concentration 25 μM, 1:3 dilutions, final DMSO 0.05%). Cells were incubated for 20 hours and culture supernatant used to determine secreted RANTES levels using a commercially available ELISA kit (R & D Systems, Minneapolis, Minn.).

The test system of experiment [2] is IKKε-mediated phosphorylation of IRF3. Description: ELISA for in-situ phosphorylation of IRF3 (phospho-Ser396) in HEK293T cells cotransfected with IRF3 and IKKε. The note with it: Homo sapiens, HEK-293T. The experiment is classed as cell-based. The method, boiled down: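 HEK293T cells cotransfected with IRF3 and IKKε were treated with compound for 20 h, and lysates were assayed by ELISA for phospho-Ser396 IRF3, normalized to DMSO. Viability was checked in parallel by CellTiter-Glo. For TBK1, cells cotransfected with IRF7 and TBK1 were treated overnight and probed by Western blot for phospho-Ser477/Ser479 IRF7.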

Setting [3] is: "sensitized" assay, read-out: IC50, inhibition of the kinase activity of IKKε.
The mark [4] stands for this setting: in-vitro IKKε kinase inhibition assays, given as 0.005 μM (5 nM), read-out: IKKε kinase inhibitory activity (IC50 value).
The mark [5] stands for this setting: DU145 cells, 20 hours, read-out: IC50, inhibition of the secretion of RANTES.
The mark [6] stands for this setting: 20 h, HEK293T cells, 20 hours, read-out: IC50, in-situ IKKε-mediated phosphorylation of IRF3.
Where [7] appears, read: 20 h, HEK293T cells, 20 hours, range given from about 1 μM to about 250 nM, read-out: IC50, in-situ IKKε-mediated phosphorylation of IRF3.
Where [8] appears, read: Table 3, HEK293T cells in culture, read-out: pIRF3 ELISA IC50.
The mark [9] stands for this setting: Table 3, in vitro, read-out: IKKε IC50.
[10] abbreviates: Table 3, DU145 cells in culture, read-out: RANTES Secretion IC50.

pIC50: −log10 of the molar value. Read-outs that look alike come from different tables or passages of the source.

Consider `N#Cc1cc(-c2ccnc(Nc3cccnc3)n2)ccc1OC1CCOCC1` [Example Compound 11, 5-[2-(Pyridin-3-ylamino)pyrimidin-4-yl]-2-(tetrahydro-2H-pyran-4-yloxy)benzonitrile], for which the results for the pIC50 (at IKKε (setting [3]); on IKKε (setting [4]); in experiment [1] (setting [5])) were over 8.30, over 8.30 and 6.90 to 7.22, respectively.
Take `COCCOC1CN(C(=O)c2ccc(Nc3nccc(-c4ccc(OC5CCOCC5)c(C#N)c4)n3)cn2)C1` [Example Compound 28, 5-{2-[(6-{[3-(2-Methoxyethoxy)azetidin-1-yl]carbonyl}pyridin-3-yl)amino]pyrimidin-4-yl}-2-(tetrahydro-2H-pyran-4-yloxy)benzonitrile]: the values for the pIC50 in experiment [2] (setting [6]) and in experiment [1] (setting [5]) were 5.30 to 6.00 and 6.90 to 7.22, respectively.
As for `N#Cc1cc(-c2ccnc(Nc3ccc(CN4CCC4)nc3)n2)ccc1OC1CCOCC1` [Example Compound 47, 5-(2-{[6-(Azetidin-1-ylmethyl)pyridin-3-yl]amino}pyrimidin-4-yl)-2-(tetrahydro-2H-pyran-4-yloxy)benzonitrile], the pIC50 in experiment [2] (setting [7]) is 6.00 to 6.60; in experiment [2] (setting [8]) it was 6.58; at IKKε (setting [9]), 8.20; in experiment [1] (setting [5]) it was 7.22 to 7.70; in experiment [1] (setting [10]), 7.40.
On to `COC1CN(Cc2ccc(Nc3nccc(-c4ccc(OC5CCOCC5)c(C#N)c4)n3)cn2)C1` [Example Compound 48, 5-[2-({6-[(3-Methoxyazetidin-1-yl)methyl]pyridin-3-yl}amino)pyrimidin-4-yl]-2-(tetrahydro-2H-pyran-4-yloxy)benzonitrile], for which the pIC50 in experiment [2] (setting [7]) is 6.00 to 6.60; in experiment [2] (setting [8]), 6.50; on IKKε (setting [3]) it was over 8.30; at IKKε (setting [9]), 8.56; on IKKε (setting [4]), over 8.30; in experiment [1] (setting [5]), 7.22 to 7.70. Further, the pIC50 in experiment [1] (setting [10]) was 7.28.
With `COCCOC1CN(Cc2ccc(Nc3nccc(-c4ccc(OC5CCOCC5)c(C#N)c4)n3)cn2)C1` [Example Compound 49, 5-{2-[(6-{[3-(2-Methoxyethoxy)azetidin-1-yl]methyl}pyridin-3-yl)amino]pyrimidin-4-yl}-2-(tetrahydro-2H-pyran-4-yloxy)benzonitrile], the negative logarithm of the IC50 (pIC50) in experiment [2] (setting [7]) was 6.00 to 6.60; in experiment [2] (setting [8]) it was 6.44; on IKKε (setting [9]), 8.21; in experiment [1] (setting [5]), 7.22 to 7.70; in experiment [1] (setting [10]), 7.25.
`CN(CCO)c1ccc(Nc2nccc(-c3ccc(OCC4CC4)c(C#N)c3)n2)cn1` [Example Compound 111, 2-(Cyclopropylmethoxy)-5-[2-({6-[(2-hydroxyethyl)(methyl)amino]pyridin-3-yl}amino)pyrimidin-4-yl]benzonitrile]: the values for the pIC50 (at IKKε (setting [3]); on IKKε (setting [4]); in experiment [1] (setting [5])) were over 8.30, over 8.30 and 7.22 to 7.70, respectively.
For the molecule `N#Cc1cc(-c2ccnc(Nc3ccc(N4CCOCC4)nc3)n2)ccc1NC(=O)C1CC1` [Example Compound 141, N-[2-Cyano-4-(2-{[6-(morpholin-4-yl)pyridin-3-yl]amino}pyrimidin-4-yl)phenyl]cyclopropanecarboxamide], the pIC50 in experiment [2] (setting [6]) is over 7.00; in experiment [2] (setting [8]), 7.49; at IKKε (setting [3]), over 8.30; on IKKε (setting [9]), 8.72; on IKKε (setting [4]) it was over 8.30; in experiment [1] (setting [5]), 7.22 to 7.70. Moreover, the pIC50 in experiment [1] (setting [10]) is 7.68.
As for `COC1CN(Cc2ccc(Nc3nccc(-c4ccc(NC(=O)C5CC5)c(C#N)c4)n3)cn2)C1` [Example Compound 146, N-{2-Cyano-4-[2-({6-[(3-methoxyazetidin-1-yl)methyl]pyridin-3-yl}amino)pyrimidin-4-yl]phenyl}cyclopropanecarboxamide], the negative logarithm of the IC50 (pIC50) in experiment [1] (setting [5]) was 6.90 to 7.22.
